Patent US20250032525A1 (priority 2021, published 2025)
pIC50: −log10 of the molar value. Read-outs that look alike come from different tables or passages of the source.

Legend:
A498 = assay: In vitro cytotoxicity (PrestoBlue); type: cell-based; settings: Homo sapiens, A498, 72 h; read-out: Cytotoxic IC50
Text: (§1) Experiments were repeated at least 3 times.

CAKI-1 [1] = assay: In vitro cytotoxicity (PrestoBlue); type: cell-based; settings: Homo sapiens, CAKI-1, 72 h; read-out: Cytotoxic IC50
Text: as §1

CCRF-CEM [2] = assay: In vitro cytotoxicity (PrestoBlue); type: cell-based; settings: Homo sapiens, 72 h, read-out: Cytotoxic IC50
Text: as §1

COLO 205 = assay: In vitro cytotoxicity (PrestoBlue); type: cell-based; settings: Homo sapiens, COLO 205, 72 h; read-out: Cytotoxic IC50
Text: as §1

HCC-2998 = assay: In vitro cytotoxicity (PrestoBlue); type: cell-based; settings: Homo sapiens; HCC-2998, 72 h; read-out: Cytotoxic IC50
Text: as §1

HL-60(TB) [3] = assay: In vitro cytotoxicity (PrestoBlue); type: cell-based; settings: Homo sapiens, 72 h, read-out: Cytotoxic IC50
Text: as §1

HOP-62 [4] = assay: In vitro cytotoxicity (PrestoBlue); type: cell-based; settings: Homo sapiens, HOP-62, 72 h; read-out: Cytotoxic IC50
Text: as §1

KM12 = assay: In vitro cytotoxicity (PrestoBlue); type: cell-based; settings: Homo sapiens, KM12, 72 h; read-out: Cytotoxic IC50
Text: as §1

MALME-3M = assay: In vitro cytotoxicity (PrestoBlue); type: cell-based; settings: Homo sapiens, 72 h, read-out: Cytotoxic IC50
Text: as §1

MDA-MB-435 = assay: In vitro cytotoxicity (PrestoBlue); type: cell-based; settings: Homo sapiens, MDA-MB-435, 72 h; read-out: Cytotoxic IC50
Text: as §1

NCI-H226 = assay: In vitro cytotoxicity (PrestoBlue); type: cell-based; settings: Homo sapiens, NCI-H226, 72 h; read-out: Cytotoxic IC50
Text: as §1

NCI-H522 = assay: In vitro cytotoxicity (PrestoBlue); type: cell-based; settings: Homo sapiens, NCI-H522, 72 h; read-out: Cytotoxic IC50
Text: as §1

OVCAR-3 = assay: In vitro cytotoxicity (PrestoBlue); type: cell-based; settings: Homo sapiens, OVCAR-3, 72 h; read-out: Cytotoxic IC50
Text: as §1

OVCAR-8 = assay: In vitro cytotoxicity (PrestoBlue); type: cell-based; settings: Homo sapiens, OVCAR-8, 72 h; read-out: Cytotoxic IC50
Text: as §1

PANC-1 = assay: In vitro cytotoxicity (PrestoBlue); type: cell-based; settings: Homo sapiens, PANC-1, 72 h; read-out: Cytotoxic IC50
Text: as §1

PC-3 = assay: In vitro cytotoxicity (PrestoBlue); type: cell-based; settings: Homo sapiens, PC-3, 72 h; read-out: Cytotoxic IC50
Text: as §1

RXF 393 = assay: In vitro cytotoxicity (PrestoBlue); type: cell-based; settings: Homo sapiens, RXF 393, 72 h; read-out: Cytotoxic IC50
Text: as §1

SK-MEL-28 = assay: In vitro cytotoxicity (PrestoBlue); type: cell-based; settings: Homo sapiens, SK-MEL-28, 72 h; read-out: Cytotoxic IC50
Text: as §1

SK-MEL-2 = assay: In vitro cytotoxicity (PrestoBlue); type: cell-based; settings: Homo sapiens, SK-MEL-2, 72 h; read-out: Cytotoxic IC50
Text: as §1

SW-620 = assay: In vitro cytotoxicity (PrestoBlue); type: cell-based; settings: Homo sapiens, SW-620, 72 h; read-out: Cytotoxic IC50
Text: as §1

[5] = tested on: MCF-7 human breast adenocarcinoma cells; settings: reported by Mező; cited from earlier work
[6] = In vivo toxicity (dose-finding) studies; set-up: species or system FVB mice; settings: 0.25 mg/kg given repeatedly, later experiments
NCI-60 cell lines = assay: NCI DTP NCI-60 cell line screen database (sulforhodamine B), panel; type: cell-based; settings: Homo sapiens
MES-SA xenografts = assay: MES-SA xenograft tumors in mice; type: in vivo, NSG mice; settings: MES-SA derived tumors; DOX 2 mg/kg iv. once per week
Experimental: 2×10^6 cells from each cell line in 200 μl serum-free culture media DMEM were inoculated into NOD.Cg-Prkdc^scid Il2rg^tm1Wjl/SzJ (NSG) mice subcutaneously in the left flank and treatment was initiated when tumors reached 200 mm^3. Mice were treated with saline (n=3 per each cell lines). […] The size of the tumors was measured every second day with a digital caliper.

[7] = tested on: patient-derived lung adenocarcinoma xenografts; assay: Patient-derived xenograft (PDX) model; type: in vivo, NSG mice; settings: single treatment; LiPyDau 0.5 mg/kg, DOX 2 mg/kg, paclitaxel 12 mg/kg; 7 days
Text: A piece from the tumor tissue was transplanted subcutaneously into the right flank and propagated in NOD.Cg-Prkdc^scid Il2rg^tm1Wjl/SzJ (NSG) mice for 7 months. After the xenografted tumor reached 1000 mm^3, tumor pieces were retransplanted subcutaneously into the right flank of 20 additional NSG mice, which were given a single treatment with various chemotherapeutics or LiPyDau. Every treatment group consists of 5 animals. After daily monitoring of the tumor volume for one week, the mice were sacrificed and the cytotoxicity of the treatments was investigated on tissue slices by image analysis.
For treatment, tumor pieces were engrafted subcutaneously.

EKVX = settings: NCI-60 database, sulforhodamine B, read-out: Cytotoxic IC50; cited from earlier work
HOP-62 [8] = settings: HOP-62, NCI-60 database, sulforhodamine B; read-out: Cytotoxic IC50; cited from earlier work
DU-145 = settings: DU-145, NCI-60 database, sulforhodamine B; read-out: Cytotoxic IC50; cited from earlier work
HL-60(TB) [9] = settings: NCI-60 database, sulforhodamine B, read-out: Cytotoxic IC50; cited from earlier work
CCRF-CEM [10] = settings: NCI-60 database, sulforhodamine B, read-out: Cytotoxic IC50; cited from earlier work
OVCAR-5 = settings: OVCAR-5, NCI-60 database, sulforhodamine B; read-out: Cytotoxic IC50; cited from earlier work
UO-31 = settings: UO-31, NCI-60 database, sulforhodamine B; read-out: Cytotoxic IC50; cited from earlier work
CAKI-1 [11] = settings: CAKI-1, NCI-60 database, sulforhodamine B; read-out: Cytotoxic IC50; cited from earlier work

COc1cccc2c1C(=O)c1c(O)c3c(c(O)c1C2=O)C[C@@](O)(C(C)=O)C[C@@H]3O[C@H]1C[C@H]2[C@H](OC3CCCN32)[C@H](C)O1 (stereo partly shown) [PyDau, 2-deamino-2-pyrrolino-daunorubicin]
pIC50 (A498): 7.88 | pIC50 (CAKI-1 [1]): 8.85 | pIC50 (CCRF-CEM [2]): 9.64 | pIC50 (COLO 205): 8.62 | pIC50 (HCC-2998): 8.09 | pIC50 (HL-60(TB) [3]): 9.05 | pIC50 (HOP-62 [4]): 8.38 | pIC50 (KM12): 8.85 | pIC50 (MALME-3M): 8.74 | pIC50 (MDA-MB-435): 8.73 | pIC50 (NCI-H226): 8.35 | pIC50 (NCI-H522): 9.03 | pIC50 (OVCAR-3): 8.91 | pIC50 (OVCAR-8): 8.92 | pIC50 (PANC-1): 8.75 | pIC50 (PC-3): 8.60 | pIC50 (RXF 393): 8.33 | pIC50 (SK-MEL-28): 8.16 | pIC50 (SK-MEL-2): 8.45 | pIC50 (SW-620): 8.56 | pIC50 [5]: 9.70 | Toxicity when given repeatedly [6]: still toxic

COc1cccc2c1C(=O)c1c(O)c3c(c(O)c1C2=O)C[C@@](O)(C(=O)CO)C[C@@H]3O[C@H]1C[C@H](N)[C@H](O)[C@H](C)O1 [DOX, doxorubicin]
pIC50 (NCI-60 cell lines; read-out: Cytotoxic IC50, av. breast): 6.72 | pIC50 (NCI-60 cell lines; read-out: Cytotoxic IC50, av. colorectal): 6.53 | pIC50 (NCI-60 cell lines; read-out: Cytotoxic IC50, av. leukaemia): 7.30 | pIC50 (NCI-60 cell lines; read-out: Cytotoxic IC50, av. lung): 6.66 | pIC50 (NCI-60 cell lines; read-out: Cytotoxic IC50, av. melanoma): 6.75 | pIC50 (NCI-60 cell lines; read-out: Cytotoxic IC50, av. ovarian): 5.44 | pIC50 (NCI-60 cell lines; read-out: Cytotoxic IC50, av. prostatic): 6.76 | pIC50 (NCI-60 cell lines; read-out: Cytotoxic IC50, av. renal): 6.61 | Overall survival (MES-SA xenografts): increased the overall survival | Tumor growth [7]: failed to exert any effect on tumor growth | pIC50 (EKVX): 6.31 | pIC50 (HOP-62 [8]): 7.22 | pIC50 (DU-145): 7.00 | pIC50 (HL-60(TB) [9]): 7.20 | pIC50 (CCRF-CEM [10]): 7.43 | pIC50 (OVCAR-5): 6.23 | pIC50 (UO-31): 6.26 | pIC50 (CAKI-1 [11]): 6.72
